The values below come from PMC9105102, “Development and Biochemical Characterization of Self-Immolative Linker Containing GnRH-III-Drug Conjugates” (International Journal of Molecular Sciences, 2022).

Data set [1] has as its target T1, GnRH-R (membranes of human prostate cancer specimens) (Homo sapiens, UniProt P30968).
T1 construct: GnRH-Rs expressed on human pituitary and human prostate cancer cells; from tissue; host or cells: human prostate cancer specimens from patients (surgery); membrane homogenate
T1 sequence (P30968 1-328): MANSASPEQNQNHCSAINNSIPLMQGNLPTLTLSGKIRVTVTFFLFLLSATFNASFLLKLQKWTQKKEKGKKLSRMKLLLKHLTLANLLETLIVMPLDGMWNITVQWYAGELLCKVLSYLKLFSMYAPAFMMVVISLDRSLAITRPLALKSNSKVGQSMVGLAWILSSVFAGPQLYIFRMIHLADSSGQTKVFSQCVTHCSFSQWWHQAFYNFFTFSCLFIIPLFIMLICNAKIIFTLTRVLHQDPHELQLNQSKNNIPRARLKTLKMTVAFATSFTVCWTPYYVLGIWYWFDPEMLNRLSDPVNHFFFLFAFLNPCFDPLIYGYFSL
In words: Radioligand competition assay, displacement of [125I]-GnRH-I-[6D-Trp] (triptorelin), human prostate cancer membranes. The note with it: mean ± SE of two to three determinations, read-out: IC50 Prostate Cancer, competitive inhibition of [125I][6D-Trp]-GnRH-I binding. As to the method:
(§1) A ligand competition assay with [^125I]-GnRH-I-[^6D-Trp] as radioligand was performed to examine the binding affinity of the GnRH-III-drug conjugates to GnRH-Rs expressed on human pituitary and human prostate cancer cells. Human prostate cancer cells were derived from patients at the time of initial surgical treatment, while tissue samples from normal human pituitary (anterior lobe) were obtained by autopsy. All subjects were informed and gave their consent for inclusion before they participated in the study. The preparation of the cell membranes was carried out according to the literature. The chloramines-T method was used to prepare radioiodinated GnRH-I agonist triptorelin which was purified by RP-HPLC [10, 38, 39, 47]. The displacement of [^125I]-GnRH-I-[^6D-Trp] was studied in an in vitro ligand competition assay to determine the binding affinities of the non-radio-labeled GnRH-III bioconjugates to GnRH-RI [10, 11, 38, 39]. Membrane homogenates containing […] protein were incubated in duplicate or triplicate with 60–80,000 cpm [^125I]-GnRH-I-[^6D-Trp] and rising concentration (1 pM—1 µM) of nonradioactive bioconjugates as competitors in a total volume of […] binding buffer. Protein concentration was determined by the method of Bradford using a Bio-Rad protein assay kit (Bio-Rad Laboratories, Hercules, CA, USA). The LIGAND-PC computerized curve-fitting program of Munson and Rodbard was used to determine the receptor binding characteristics and IC50 values.
In general terms: In a radioligand displacement assay an active substance lowers the binding of a labelled ligand.

Data set [2] is described as follows: Degradation of drug conjugates in presence of rat liver lysosomal homogenate (LC-MS). Format: in vitro ADME. The note with it: pH 5, 37 °C; for release of the smallest Dau-containing metabolite H-Lys(Dau-glutaryl)-OH / release of free Dau by lysosomal enzymes: LC-MS; for release of free Dau by lysosomal enzymes: up to 24 h. As to the method:
The preparation of the rat liver lysosomal homogenate was carried out as recently reported. A Qubit Protein Assay Kit (Thermo Fischer Scientific, Waltham, MA, USA) was used to examine the concentration of the lysosomal proteins.
Initially, a stock solution of the GnRH-III-Dau conjugates in water (5 µg/µL) was prepared. For the degradation reaction, the conjugates and the lysosomal homogenate were diluted together in 0.2 M NaOAc buffer (pH 5) to a concentration of 0.25 µg/µL each. These mixtures were kept at 37 °C and at distinct time points (5 min, 1 h, 2 h, 4 h, 8 h and 24 h), 15 µL of each sample were quenched with 2 µL acetic acid and analyzed by LC-MS (System I).
The GnRH-III-PTX conjugates were dissolved in DMSO to a concentration of 10 mM. The reaction was carried out in 0.2 M NaOAc buffer (pH 5) with 10 µM conjugate and 0.025 µg/mL lysosomal homogenate. The reaction mixtures were incubated at 37 °C and aliquots of 60 μL were taken at 5 min, 1 h, 2 h, 4 h, 8 h and 24 h and quenched with 5 μL of acetic acid. The analysis of the samples was performed by LC–MS (System-II).

The target of data set [3] is T2, GnRH-R (membranes of human pituitary) (Homo sapiens, UniProt P30968).
T2 construct: GnRH-Rs expressed on human pituitary and human prostate cancer cells; from tissue; host or cells: normal human pituitary (anterior lobe), autopsy; membrane homogenate
T2 sequence (P30968 1-328): T1 sequence (P30968 1-328)
Nature of the data set: Radioligand competition assay, displacement of [125I]-GnRH-I-[6D-Trp] (triptorelin), human pituitary membranes. The data set is classed as binding. As to the method: as §1

Data set [4] deals with Panc-1 human pancreatic cancer cells. Nature of the data set: cells. Format: cell-based. The note with it: Panc-1 cells; treatment 24 h (Dau conjugates) or 6 h (PTX compounds), viability at 72 h; mean ± SE of two to three determinations; read-out: Panc-1 IC50. As to the method: (§2) For cultivation of A2780 human ovarian and Panc-1 human pancreatic cancer cells, RPMI-1640 medium with 10% FBS, L-glutamine and 1% Penicillin-Streptomycin were used. Cells were cultured in appropriate plastic flasks at 37 °C (humidified atmosphere, 5% CO2/95% air).
(§3) A set-up of 96-well plates was used to study the in vitro antiproliferative activity. Therefore, 5 × 10^3 cells in 100 µL complete medium were seeded to each well. After 24 h, complete medium was removed and cells were treated with 200 µL bioconjugate solution in serum-free medium (concentration range 0.0032–50 µM, control wells were treated with serum-free medium). Medium was taken out after 6 h treatment (PTX conjugates) or 24 h (Dau conjugates), replaced by complete medium and incubation was continued. To determine the cell viability, medium was removed after 72 h and 100 µL resazurin solution [45] (10% Tox-8 in FBS-free medium) was added to each well, followed by additional incubation of 2–3 h. A Tecan infinite 200 pro microplate reader (Tecan Group Ltd., Zürich, Switzerland) was used for fluorescence detection (λEx = 560 and λEm = 590 nm). Experiments were performed at least twice, using three parallels per concentration. The cell viability (and IC50 values) was calculated with GraphPad Prism using a nonlinear regression (sigmoidal dose-response).

In data set [5] the test system is A2780 human ovarian cancer cells. Nature of the data set: cells. The note with it: A2780 cells; treatment 24 h (Dau conjugates) or 6 h (PTX compounds), viability at 72 h; mean ± SE of two to three determinations; read-out: A2780 IC50. The data set is classed as cell-based. As to the method: as §2, §3

SMILES strings stand for the structures.

The IC50 is the midpoint of a concentration-inhibition curve.

Consider `CCCC(=O)NCCCC[C@H](NC(=O)[C@H](Cc1c[nH]c2ccccc12)NC(=O)[C@H](Cc1c[nH]cn1)NC(=O)[C@@H]1CCC(=O)N1)C(=O)N[C@@H](Cc1c[nH]cn1)C(=O)N[C@@H](CC(=O)O)C(=O)N[C@@H](Cc1c[nH]c2ccccc12)C(=O)N[C@@H](CCCCNC(=O)CCCC(=O)N[C@H](C(=O)N[C@@H](CCCNC(N)=O)C(=O)Nc1ccc(COC(=O)N(C)CCN(C)C(=O)O[C@@H](C(=O)O[C@H]2C[C@@]3(O)[C@@H](OC(=O)c4ccccc4)[C@@H]4[C@]5(OC(C)=O)CO[C@@H]5C[C@H](O)[C@@]4(C)C(=O)[C@H](OC(C)=O)C(=C2C)C3(C)C)[C@@H](NC(=O)c2ccccc2)c2ccccc2)cc1)C(C)C)C(=O)N1CCC[C@H]1C(=O)NCC(N)=O` [compound 14], for which the IC50 in data set [1] amounted to 10.7 ± 1.82 nM; in data set [3], 10.5 ± 2.01 nM; in data set [4], 5030 ± 1910 nM; in data set [5], 670 ± 70 nM. The “detection of the diamine-PTX fragment” value in data set [2] (after 5 min of incubation) was “could be already detected”. Moreover, the “release of the free PTX” value in data set [2] (within 24 h) is listed as “could not be detected”.

For `CCCC(=O)NCCCC[C@H](NC(=O)[C@H]1Cc2ccccc2CN1C(=O)[C@@H]1CCC(=O)N1)C(=O)N[C@@H](Cc1c[nH]cn1)C(=O)N[C@@H](CC(=O)O)C(=O)N[C@@H](Cc1c[nH]c2ccccc12)C(=O)N[C@@H](CCCCNC(=O)CCCC(=O)N(C)CCN(C)C(=O)O[C@@H](C(=O)O[C@H]1C[C@@]2(O)[C@@H](OC(=O)c3ccccc3)[C@@H]3[C@]4(OC(C)=O)CO[C@@H]4C[C@H](O)[C@@]3(C)C(=O)[C@H](OC(C)=O)C(=C1C)C2(C)C)[C@@H](NC(=O)c1ccccc1)c1ccccc1)C(=O)N1CCC[C@H]1C(=O)NCC(N)=O` [compound 26], the half-maximal inhibitory concentration (IC50) in data set [1] is 22.2 ± 0.96 nM; in data set [3], 23.4 ± 1.67 nM; in data set [4], > 100000 nM; in data set [5], > 100000 nM. Also, the “detection of the diamine-PTX fragment” value in data set [2] (even after 24 h of incubation) was “could not be detected”.

With `CCCC(=O)NCCCC[C@H](NC(=O)[C@H]1Cc2ccccc2CN1C(=O)[C@@H]1CCC(=O)N1)C(=O)N[C@@H](Cc1c[nH]cn1)C(=O)N[C@@H](CC(=O)O)C(=O)N[C@@H](Cc1c[nH]c2ccccc12)C(=O)N[C@@H](CCCCNC(=O)CCCC(=O)N[C@H]1C[C@H](O[C@H]2C[C@](O)(C(C)=O)Cc3c(O)c4c(c(O)c32)C(=O)c2c(OC)cccc2C4=O)O[C@@H](C)[C@H]1O)C(=O)N1CCC[C@H]1C(=O)NCC(N)=O` [compound 24], the half-inhibitory concentration (IC50) in data set [1] was 42.7 ± 7.04 nM; in data set [3] it was 36.3 ± 3.17 nM; in data set [4] it was > 100000 nM; in data set [5], 48140 ± 470 nM. In data set [2], the “release of the smallest Dau-containing metabolite H-Lys(Dau-glutaryl)-OH” value was “confirming the release”. Besides, the “release of free Dau by lysosomal enzymes” value in data set [2] is listed as “free Dau could not be detected”.

Consider `CCCC(=O)NCCCC[C@H](NC(=O)[C@H](Cc1c[nH]c2ccccc12)NC(=O)[C@H](Cc1c[nH]cn1)NC(=O)[C@@H]1CCC(=O)N1)C(=O)N[C@@H](Cc1c[nH]cn1)C(=O)N[C@@H](CC(=O)O)C(=O)N[C@@H](Cc1c[nH]c2ccccc12)C(=O)N[C@@H](CCCCNC(=O)CCCC(=O)N[C@H]1C[C@H](O[C@H]2C[C@](O)(C(C)=O)Cc3c(O)c4c(c(O)c32)C(=O)c2c(OC)cccc2C4=O)O[C@@H](C)[C@H]1O)C(=O)N1CCC[C@H]1C(=O)NCC(N)=O` [compound 23], for which the half-maximal inhibitory concentration (IC50) in data set [1] is 8.61 ± 1.08 nM; in data set [3], 9.7 ± 1.07 nM; in data set [4], > 100000 nM; in data set [5] it was 67900 ± 25400 nM. Further, the “release of the smallest Dau-containing metabolite H-Lys(Dau-glutaryl)-OH” value in data set [2] was “confirming the release”. For the same molecule, in data set [2], the “release of free Dau by lysosomal enzymes” value is on record as “free Dau could not be detected”.
